According to US8741932B2, “Imidazopyridine derivatives” (Piramal Enterprises Limited, priority 2009, dated 2014):

How the values were obtained:
mTOR = molecular target: T1, mTOR (Homo sapiens, UniProt P42345); test: mTOR activity assay (cell ELISA, Phospho-AKT Ser 473, A2780 cells); assay type: cell-based; settings: for inhibition at 1 µM: read-out: % Inhibition of mTOR activity at 1 μM
T1 construct: endogenous in cells; host or cells: A2780 ovarian cell line (ATCC)
In short: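 A2780 cells adhered 18-24 h, serum-starved 24 h, then stimulated with 20% FCS for 30 min alongside compound-treated sets. Fixed cells probed for phospho-AKT Ser473 by HRP/OPD cell ELISA, absorbance 490 nm. Values given as percentage or fold decrease in AKT phosphorylation relative to stimulated cells.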

FaDu = test: Cytotoxicity assay (propidium iodide), FaDu; assay type: cell-based; settings: Homo sapiens; FaDu (C11a, hypopharyngeal); 48 hours
Protocol: (§1) Cells from cell lines as mentioned in the table given below were seeded at a density of 3000 cells/well in a white opaque 96-well plate. Following incubation at 37° C./5% CO2 for a period of 18-24 hours, the cells were treated with various concentrations (stock solution was prepared in DMSO and subsequent dilutions were made in media as per ATCC guidelines) of the representative compounds of present invention (refer table 3) for a period of 48 hours. At the end of treatment, the spent culture medium was discarded, the cells were washed with 1×PBS and 200 μl of 7 μg/ml propidium iodide was added to each well. The plates were frozen at −70° C. for at least 24 hours. For analysis, the plates were brought to RT, allowed to thaw and were read in PolarStar fluorimeter with the fluorescence setting. The percentage of viable cells in the non treated set of wells was considered to be 100 and the percentage viability following treatment was calculated accordingly. IC50 values were calculated from graphs plotted using these percentages.

H460 = test: Cytotoxicity assay (propidium iodide), H460; assay type: cell-based; settings: Homo sapiens, NCI-H460; H460 (C1b, lung); 48 hours
MDA MB 231 = test: Cytotoxicity assay (propidium iodide), MDA MB 231; assay type: cell-based; settings: Homo sapiens; MDA MB 231 (C6a, breast); 48 hours
Protocol: as §1

MDA MB 468 = test: Cytotoxicity assay (propidium iodide), MDA MB 468; assay type: cell-based; settings: Homo sapiens; MDA MB 468 (C6b, breast); 48 hours
Protocol: as §1

MCF7 = test: Cytotoxicity assay (propidium iodide), MCF7; assay type: cell-based; settings: Homo sapiens; MCF7 (C6c, breast); 48 hours
Protocol: as §1

BT 549 = test: Cytotoxicity assay (propidium iodide), BT 549; assay type: cell-based; settings: Homo sapiens; BT 549 (C6d, breast); 48 hours
Protocol: as §1

U266B1 = test: Cytotoxicity assay (propidium iodide), U266B1; assay type: cell-based; settings: U266B1 (C7a, multiple myeloma); 48 hours
Protocol: as §1

RPMI 8226 = test: Cytotoxicity assay (propidium iodide), RPMI 8226; assay type: cell-based; settings: Homo sapiens; RPMI 8226 (C7b, multiple myeloma); 48 hours
Protocol: as §1

U 373 = test: Cytotoxicity assay (propidium iodide), U 373; assay type: cell-based; settings: Homo sapiens, U373 MG; U 373 (C8a, glioblastoma); 48 hours
Protocol: as §1

U 87 MG = test: Cytotoxicity assay (propidium iodide), U 87 MG; assay type: cell-based; settings: Homo sapiens; U 87 MG (C8b, glioblastoma); 48 hours
Protocol: as §1

G361 = test: Cytotoxicity assay (propidium iodide), G361; assay type: cell-based; settings: G-361; G361 (C9a, human melanoma); 48 hours
Protocol: as §1

PC3 = test: Cytotoxicity assay (propidium iodide), PC3; settings: Homo sapiens, PC-3, 48 h, read-out: IC50 cytotoxicity
Protocol: as §1

[1] = system: DSS-induced colitis in C57BL/6J mice; test: Ulcerative colitis, DSS-induced colitis in mice; assay type: in vivo; settings: 3% DSS, 10 mg/kg orally daily, day 6 to day 10
Protocol: The efficacy of compounds of the present invention on the gross pathology of colitis and proinflammatory mediators was determined by following the method described in Am. J. Physiol. Gastrointest. Liver Physiol.
C57BL/6J mice (6 weeks of age, weighing 18-22 gms) were obtained from Jackson Laboratories (Bar Harbor, Me.) and housed in individually ventilated cage (IVC) system. Colitis was induced in mice by replacing drinking water with 3% (w/v) DSS (molecular weight 35-50 kDa, ICN Biomedicals, Aurora, Ohio, US) in water. This solution was made available to the experimental animals ad libitum, from day 0 to day 10. A batch of six naive animals received water instead of DSS during this period.
DSS-induction of colitis was manifested with increase in clinical disease activity index associated with weight loss and presence of blood in feces.
The animals were weighed every day and the record of body weights was maintained. The compound of Example 25 (10 mg/kg, prepared at a concentration of 1 mg/mL in 0.5% (w/v) CMC after mixing a drop of Tween 20) was administered orally daily to the colitis induced animals. This treatment was initiated on day 6 and continued up to day 10. During this period, DSS control animals received DSS, positive control animals received 5-aminosalicylic acid (5-ASA, 25 mg/kg, p.o.) and naïve animals received 0.5% CMC once daily.
At the end of DSS treatment period, mice were humanely euthanized with 15% urethane (i.p.). The whole colon (i.e., including ceacum, proximal colon and distal colon) was excised.
The colon was macrosopically assessed by determining • a) Rectal bleeding/blood in faeces • b) Stool consistency • c) Blood in colon • d) Colon length • e) % weight loss • f) Blood hemoglobin concentration
Disease Activity Index: various features were scored as delineated in the following table.
Disease activity index is the sum of scores of all features.

IC50 (mTOR) | inhibition at 1 µM (mTOR) | SMILES | IC50 (FaDu) | IC50 (H460) | IC50 (MDA MB 231) | IC50 (MCF7) | IC50 (BT 549) | IC50 (PC3) | also measured
 | 30 to 50% | CN(N=Cc1cnc2ccc(-c3cccnc3)cn12)S(=O)(=O)c1cc(F)cc(F)c1 [Example 16, 3,5-Difluoro-N-methyl-N′-((6-(pyridine-3-yl)imidazo[1,2-a]pyridine-3-yl)methylene) benzenesulfonohydrazide] |  |  |  |  |  |  | 
1000 to 5000 nM |  | Cc1ccc(F)cc1S(=O)(=O)N(C)N=Cc1cnc2ccc(-c3cccnc3)cn12 [Example 21, 5-Fluoro-N, 2-dimethyl-N′-((6-(pyridine-3-yl)imidazo[1,2-a]pyridine-3-yl)methylene) benzenesulfonohydrazide] |  | 10 to 5000 nM | 10 to 5000 nM | 10 to 5000 nM | 10 to 5000 nM | 10 to 5000 nM | IC50 (MDA MB 468): 10 to 5000 nM; IC50 (U266B1): 10 to 5000 nM; IC50 (RPMI 8226): 10 to 5000 nM; IC50 (U 373): 10 to 5000 nM; IC50 (U 87 MG): 10 to 5000 nM; IC50 (G361): 10 to 5000 nM
1000 to 5000 nM |  | Cc1ccc([N+](=O)[O-])cc1S(=O)(=O)N(C)N=Cc1cnc2ccc(-c3cccnc3)cn12 [Example 25] |  | 10 to 5000 nM | 10 to 5000 nM | 10 to 5000 nM | 10 to 5000 nM | 10 to 5000 nM | DSS-induced body weight loss [1]: attenuated; DSS-induced colon bleeding [1]: attenuated; DSS-induced decrease in hematocrit [1]: inhibited; DSS-induced disease activity index [1]: reduced; DSS-induced shortening of colon [1]: inhibited; rectal bleeding index [1]: improved

The remaining lines, values behind:

SMILES | IC50 (mTOR) | inhibition at 1 µM (mTOR) | IC50 (FaDu) | IC50 (H460) | IC50 (MDA MB 231) | IC50 (MCF7) | IC50 (BT 549) | IC50 (PC3) | also measured
CN(N=Cc1cnc2ccc(-c3cccnc3)cn12)S(=O)(=O)c1cccc(F)c1 [Example 5, 3-Fluoro-N-methyl-N′-((6-(pyridine-3-yl)imidazo[1,2-a]pyridine-3-yl)methylene)benzenesulfonohydrazide] | 1000 to 5000 nM |  | 10 to 5000 nM |  |  |  |  |  | 
CN(N=Cc1cnc2ccc(-c3cccnc3)cn12)S(=O)(=O)c1ccc(F)cc1 [Example 6, 4-Fluoro-N-methyl-N′-((6-(pyridine-3-yl)imidazo[1,2-a]pyridine-3-yl)methylene)benzenesulfonohydrazide] |  | 30 to 50% | 10 to 5000 nM |  |  |  |  |  | 
